Experimental data taken from patent publication US20110144331A1, “Cinnoline Compounds for the Treatment of Anxiety, Cognitive and Mood Disorders” (AstraZeneca AB, priority 2005, published 2011).

Legend:
[1] = molecular target: MT1 Receptor (Homo sapiens, UniProt P48039); assay: MT1 Receptor Binding
[2] = molecular target: human Melatonin receptor 1 (MT1) (Homo sapiens, UniProt P48039); assay: MT1 GTPγ35S-SPA Assay (Method II); settings: compound used for normalization
[3] = molecular target: T1, human α2β3γ2 GABAA receptor (Homo sapiens, UniProt P18507+P47869); assay: Two-electrode voltage-clamp in Xenopus oocytes, potentiation of GABA EC10 current, GABAA2; format: cell-based; settings: percentage potentiation of GABA EC10 current divided by that of diazepam control
T1 construct: expressed in transfected cells; host or cells: Xenopus laevis oocytes injected with capped cRNA (α:β:γ 1:1:1)
Procedure: (§1) GABAA receptors were heterologously expressed in Xenopus oocytes by injecting cRNA corresponding to human α1, α2, α3, α5, β2, β3 and γ2 subunits of the GABAA receptor genes. The specific subunit combinations (subtypes) were as follows: α1β2γ2, α2β3γ2, α3β3γ2, and α5β3γ2. The EC10 of GABA was approximated for each cell. Stability of GABA-mediated (EC10) current was established. Modulatory effect of test compound was determined and compared across subtypes. […] Thus, the assay can characterize modulatory effects and determine subtype selectivity of test compounds on major subtypes of GABAA receptors.
(§2) Surgically removed ovarian lobes were teased out in OR2 solution (82 NaCl, 2.5 KCl, 5 HEPES, 1.5 NaH2PO4, 1 MgCl2, 0.1 EDTA, in mM, pH 7.4). The oocytes were defolliculated by incubation in 25 mL OR2 containing 0.2% collagenase 1A (SIGMA) two times for about 60 minutes on a platform shaker and stored in Leibovitz's L-15 medium. Oocytes were injected the following day in 0.5× Leibovitz's L-15 medium containing […] gentamycin, 10 units/ml penicillin, and […] streptomycin.
(§3) Capped cRNAs from the linearized vectors containing human α1, β2 and γ2 subunits of the GABAA receptor genes were mixed in ratio of 1:1:30. Oocytes were injected with 25-50 nL of mixed RNA with an appx molar ratio for α1, β2, and γ2 as 1:1:10. Oocyte recordings were done 2-10 days after injection. The same methods apply to subtypes derived from α2β2γ2, α3β3γ2, and α5β3γ2, except for 1:1:1 ratio was used for α, β, and γ subunits.
(§4) All measurements were done in a medium containing ND-96 (96 NaCl, 2 KCl, 1.8 CaCl2.2H2O, 1 MgCl2.6H2O, 5 HEPES, in mM, pH 7.5). Two-electrode voltage-clamp recording was carried out using OpusXpress amplifier (Axon Instruments, Foster City, Calif.), which allows simultaneous recording from 8 oocytes. Oocytes were impaled with two electrodes of 1-2 MΩ tip resistance when filled with 3M KCl. Recordings were begun when membrane potential became stable at potentials negative to −50-−60 mV. Membrane potential was held at −60 mV. […] The concentration of GABA corresponded to the EC10 value calculated for each oocyte. The modulator pulses started 30 s before the GABA pulse so as to allow preincubation with the modulator. A set of 3 pulses with just GABA without modulator was given prior to the modulator-containing pulses to define the baseline GABA response. Two oocytes per each experiment were dedicated to observe the effect of diazepam on GABA response to ensure the presence of γ2 subunit in the GABAA pentameric complex, which imparts diazepam sensitivity to the complex.
(§5) Current amplitude (i) was measured from baseline to peak using Clampfit (Axon Inst., Foster City, Calif.). Potentiation was calculated as percent change from the baseline GABA current flux 100×(imod/icontrol)−1) where imod=current mediated by modulator+GABA and icontrol=current mediated by GABA alone. […] Similarly, a value of −50% potentiation means the presence of modulator caused a 50% decrease in the control current. Various other data shown here were fitted and plotted using GraphPad Prism (GraphPad Software, Inc. San Diego, Calif.). The percentage potentiation was converted to relative potentiation by dividing it with percentage potentiation value obtained from the same assay with diazepam as a control.

[4] = molecular target: T2, human α1β2γ2 GABAA receptor (Homo sapiens, UniProt P14867+P18507); assay: Two-electrode voltage-clamp in Xenopus oocytes, potentiation of GABA EC10 current, GABAA1; format: cell-based; settings: percentage potentiation of GABA EC10 current divided by that of diazepam control
T2 construct: expressed in transfected cells; host or cells: Xenopus laevis oocytes injected with capped cRNA
Procedure: as §1, §2, §3, §4, §5

T2 sequence (P14867 28-456): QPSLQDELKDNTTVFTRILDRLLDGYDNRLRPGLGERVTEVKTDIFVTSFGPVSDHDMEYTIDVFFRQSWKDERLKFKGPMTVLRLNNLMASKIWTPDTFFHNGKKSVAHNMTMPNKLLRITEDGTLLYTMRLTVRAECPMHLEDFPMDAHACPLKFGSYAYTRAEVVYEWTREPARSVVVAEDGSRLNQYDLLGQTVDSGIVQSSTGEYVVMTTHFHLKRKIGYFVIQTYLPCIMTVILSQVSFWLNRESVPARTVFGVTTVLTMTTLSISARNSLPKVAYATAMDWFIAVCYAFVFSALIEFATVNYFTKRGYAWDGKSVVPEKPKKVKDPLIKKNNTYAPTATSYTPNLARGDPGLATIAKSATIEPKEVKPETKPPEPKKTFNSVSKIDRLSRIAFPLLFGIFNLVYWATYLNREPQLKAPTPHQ
T2 sequence (P47870 25-512 partner limits assumed): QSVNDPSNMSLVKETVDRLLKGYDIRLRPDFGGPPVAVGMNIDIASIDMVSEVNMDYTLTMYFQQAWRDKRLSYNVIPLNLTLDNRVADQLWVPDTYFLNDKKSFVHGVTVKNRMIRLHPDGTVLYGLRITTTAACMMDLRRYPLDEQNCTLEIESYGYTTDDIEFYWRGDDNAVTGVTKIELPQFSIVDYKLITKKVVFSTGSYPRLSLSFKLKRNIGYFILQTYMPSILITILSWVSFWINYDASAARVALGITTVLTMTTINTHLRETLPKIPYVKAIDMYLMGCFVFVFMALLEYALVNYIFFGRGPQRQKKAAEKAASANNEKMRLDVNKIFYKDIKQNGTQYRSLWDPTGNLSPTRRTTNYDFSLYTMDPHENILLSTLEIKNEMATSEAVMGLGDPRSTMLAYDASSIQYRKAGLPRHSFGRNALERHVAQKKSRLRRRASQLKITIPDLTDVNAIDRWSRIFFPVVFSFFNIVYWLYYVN
T2 sequence (P18507 40-475): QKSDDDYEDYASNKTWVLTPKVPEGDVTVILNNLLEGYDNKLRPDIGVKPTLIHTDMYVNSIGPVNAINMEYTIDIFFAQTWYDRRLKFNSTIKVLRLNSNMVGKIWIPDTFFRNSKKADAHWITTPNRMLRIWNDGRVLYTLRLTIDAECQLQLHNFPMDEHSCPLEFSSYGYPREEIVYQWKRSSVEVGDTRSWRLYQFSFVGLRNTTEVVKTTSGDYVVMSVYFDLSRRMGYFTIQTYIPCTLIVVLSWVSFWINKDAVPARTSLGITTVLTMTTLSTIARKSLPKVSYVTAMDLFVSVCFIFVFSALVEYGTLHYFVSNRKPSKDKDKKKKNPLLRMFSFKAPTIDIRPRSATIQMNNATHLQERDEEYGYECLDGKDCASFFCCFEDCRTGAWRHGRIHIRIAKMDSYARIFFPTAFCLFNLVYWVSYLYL
T1 sequence (P47869 29-451): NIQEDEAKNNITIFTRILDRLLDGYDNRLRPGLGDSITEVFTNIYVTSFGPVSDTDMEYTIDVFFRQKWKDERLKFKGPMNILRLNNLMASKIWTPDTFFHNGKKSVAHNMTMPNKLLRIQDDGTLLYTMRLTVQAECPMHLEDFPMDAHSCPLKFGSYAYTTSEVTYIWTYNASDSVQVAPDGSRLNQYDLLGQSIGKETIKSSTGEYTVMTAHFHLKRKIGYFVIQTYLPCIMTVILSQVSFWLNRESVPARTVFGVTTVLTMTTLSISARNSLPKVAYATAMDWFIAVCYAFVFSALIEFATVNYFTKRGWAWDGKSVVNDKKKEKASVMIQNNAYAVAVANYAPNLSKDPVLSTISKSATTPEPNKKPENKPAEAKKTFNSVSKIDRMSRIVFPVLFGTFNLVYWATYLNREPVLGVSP
T1 sequence (P18507 40-475): as the sequence (P18507 40-475) above
T1 sequence (P28472 26-473 partner): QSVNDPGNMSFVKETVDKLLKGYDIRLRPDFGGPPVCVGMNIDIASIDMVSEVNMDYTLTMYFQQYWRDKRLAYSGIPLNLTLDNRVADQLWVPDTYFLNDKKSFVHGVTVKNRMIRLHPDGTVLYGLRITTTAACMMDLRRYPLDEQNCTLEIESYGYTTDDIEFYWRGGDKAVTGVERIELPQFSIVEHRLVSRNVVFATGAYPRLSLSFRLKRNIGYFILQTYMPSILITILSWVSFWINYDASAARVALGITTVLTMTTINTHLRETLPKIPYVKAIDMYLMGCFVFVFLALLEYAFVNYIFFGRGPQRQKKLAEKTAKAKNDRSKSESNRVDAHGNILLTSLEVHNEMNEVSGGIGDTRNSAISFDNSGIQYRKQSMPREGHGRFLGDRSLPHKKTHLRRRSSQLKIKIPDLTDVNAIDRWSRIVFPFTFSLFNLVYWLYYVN
MT1 Receptor, sequence (P48039 whole entry): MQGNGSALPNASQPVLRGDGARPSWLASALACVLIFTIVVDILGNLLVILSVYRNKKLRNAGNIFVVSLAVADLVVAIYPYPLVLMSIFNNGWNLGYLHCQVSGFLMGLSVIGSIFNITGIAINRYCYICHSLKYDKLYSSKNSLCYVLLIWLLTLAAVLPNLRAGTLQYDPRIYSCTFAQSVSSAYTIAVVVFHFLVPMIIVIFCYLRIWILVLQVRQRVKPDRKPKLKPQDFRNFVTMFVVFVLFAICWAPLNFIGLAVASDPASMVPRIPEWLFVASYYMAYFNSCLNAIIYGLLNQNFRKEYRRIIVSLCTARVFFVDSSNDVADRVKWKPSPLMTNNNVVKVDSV
human Melatonin receptor 1 (MT1), sequence (P48039 whole entry): as above

Compound	inhibition at 1 µM [1] [%]	EC100 concentration [2] [nM]	Relative Potentiation for GABAA2 [3]	Relative Potentiation for GABAA1 [4]
CCCNC(=O)c1nnc2c(-c3c(F)cccc3OC)cccc2c1N [drawing 423]	89	–	–	–
COc1ccc2[nH]c(I)c(CCNC(C)=O)c2c1 [2-Iodomelatonin]	–	3	–	–
CCCNC(=O)c1nnc2c(-c3cccc(F)c3F)cccc2c1N	–	–	0.17	−0.11
COc1ccncc1-c1cccc2c(N)c(C(=O)NC3CC3)nnc12	–	–	0.337	0.077
CCCNC(=O)c1nnc2c(-c3cnn(C)c3)cccc2c1N	–	–	0.16	−0.16
CCCNC(=O)c1nnc2c(-c3ccc(OC)cc3F)cccc2c1N	–	–	0.12	0
CCCNC(=O)c1nnc2c(-c3ccc(C)cc3)cccc2c1N	–	–	0.11	0.013
CCCNC(=O)c1nnc2c(-c3cnc(OC)nc3OC)c(Cl)ccc2c1N	–	–	0.29	0.19
CCCNC(=O)c1nnc2c(-c3ccc(F)c(F)c3)cccc2c1N	–	–	0.12	−0.14
CCCNC(=O)c1nnc2c(-c3cccc(C#N)c3)cccc2c1N	–	–	0.31	0.088
CCCNC(=O)c1nnc2c(-c3cnccc3OC)cccc2c1N	82	–	–	–
CCCNC(=O)c1nnc2c(-c3cc(C)c(OC)c(C)c3)cccc2c1N	–	–	0.32	0.79
Cc1ccc(-c2cccc3c(N)c(C(=O)NC4CC4)nnc23)cn1	–	–	0.074	−0.166
CCCNC(=O)c1nnc2c(-c3cccnc3F)cccc2c1N	–	–	0.17	−0.083
CCCNC(=O)c1nnc2c(-c3ccc(OC)nc3OC)cccc2c1N	–	–	0.25	0.17
CCCNC(=O)c1nnc2c(-c3cc(OC)ccc3F)cccc2c1N	–	–	0.32	0.26
CCNC(=O)c1nnc2c(-c3cnccc3OC)cccc2c1N	–	–	0.28	−0.02

Compound	inhibition at 1 µM [1] [%]	EC100 concentration [2] [nM]	Relative Potentiation for GABAA2 [3]	Relative Potentiation for GABAA1 [4]
CCCNC(=O)c1nnc2c(-c3cc(F)ccc3C)cccc2c1N	–	–	0.22	0.02
CCCNC(=O)c1nnc2c(-c3ccc(C)c(C)c3)cccc2c1N	–	–	0.35	0.23
CCCNC(=O)c1nnc2c(-c3ccc(OC)c(C)c3)cccc2c1N	–	–	0.27	0.21
CCCNC(=O)c1nnc2c(-c3cc(C)ccc3F)cccc2c1N	–	–	0.37	0.095
CCCNC(=O)c1nnc2c(-c3ccc(OC)cc3)cccc2c1N	–	–	0.06	−0.11
CCCNC(=O)c1nnc2c(-c3ccc(OC)cc3OC)cccc2c1N	–	–	0.15	0.18
CCCNC(=O)c1nnc2c(-c3ccc(OC)c(F)c3)c(F)ccc2c1N	–	–	0.16	0.1
CCCNC(=O)c1nnc2c(-c3ccc(OC)c(F)c3)cccc2c1N	–	–	0.19	0.03
CCCNC(=O)c1nnc2c(-c3cccc(Cl)c3Cl)cccc2c1N	–	–	0.053	0.067
CCCNC(=O)c1nnc2c(-c3cccc(C(=O)N4CCC4)c3)cccc2c1N	–	–	−0.0075	0.19
CCCNC(=O)c1nnc2c(-c3cc(C)ccc3C)c(F)ccc2c1N	–	–	0.28	0.21
CCCNC(=O)c1nnc2c(-c3cc(C)ccc3C)c(Cl)ccc2c1N	–	–	0.22	0.24
CCCNC(=O)c1nnc2c(-c3ccc(OC)c(OC)c3)cccc2c1N	–	–	0.28	0.33
CCCNC(=O)c1nnc2c(-c3ccc(OC)nc3)cccc2c1N	–	–	0.16	−0.08
COc1cccc(F)c1-c1cccc2c(N)c(C(=O)NC3CC3)nnc12	–	–	0.16	−0.048
CCCNC(=O)c1nnc2c(-c3cc(C)ccc3OC)c(F)ccc2c1N	–	–	0.37	0.23
